The structures appear in SMILES notation.

Nine molecules from ChEMBL document CHEMBL5346899, “PKM2/PDK1 dual-targeted shikonin derivatives restore the sensitivity of EGFR-mutated NSCLC cells to gefitinib by remodeling glucose metabolism” (Eur J Med Chem, 2023) can be followed below.

The subject of series [1] is NCI-H1299. The experiment in a line: cells. It counts as functional, cell-based. To be noted: Homo sapiens, NCI-H1299, 24 h.
Description: Antiproliferative activity against human NCI-H1299 cells assessed as inhibition of cell growth incubated for 24 hrs by CCK-8 assay
Series [2] deals with A549. The experiment in a line: cells. It counts as functional, cell-based. To be noted: Homo sapiens, A549, 24 h.
Description: Antiproliferative activity against human A549 cells assessed as inhibition of cell growth incubated for 24 hrs by CCK-8 assay
Series [3] concerns NCI-H1975. The experiment in a line: cells. To be noted: Homo sapiens, NCI-H1975, 24 h. It counts as functional, cell-based.
Description: Antiproliferative activity against human NCI-H1975 cells assessed as inhibition of cell growth incubated for 24 hrs by CCK-8 assay
Series [4] in a line: in vitro. The note with it: human, HEK293T cells.
Description: Cytotoxicity against HEK293T cells assessed as inhibition of cell growth incubated for 24 hrs by CCK-8 assay
Series [5] concerns HCC827. The experiment in a line: cells. To be noted: Homo sapiens, HCC827, 24 h. The class given is functional, cell-based.
Description: Antiproliferative activity against human HCC827 cells assessed as inhibition of cell growth incubated for 24 hrs by CCK-8 assay
For series [6], the system named is HCC827. In words: Induction of apoptosis in human HCC827 cells assessed as late apoptotic cells at 2 micromol/L incubated for 24 hrs by Annexin V-FITC/PI staining based analysis (reference value: 8.42%). To be noted: dose 2 µmol/L, at 2 µM. It counts as functional.
Series [7] concerns NCI-H1975. The experiment in a line: Induction of apoptosis in human NCI-H1975 cells assessed as early apoptotic cells at 2 micromol/L incubated for 24 hrs by Annexin V-FITC/PI staining based analysis (reference value: 1.88%). It counts as functional. To be noted: dose 2 µmol/L, at 2 µM.
Series [8] concerns A549. In words: Induction of apoptosis in human A549 cells assessed as early apoptotic cells at 2 micromol/L incubated for 24 hrs by Annexin V-FITC/PI staining based analysis (reference value: […]%). To be noted: dose 2 µmol/L. The class given is functional.
Series [9] concerns NCI-H1299. The experiment in a line: Induction of apoptosis in human NCI-H1299 cells assessed as early apoptotic cells at 2 micromol/L incubated for 24 hrs by Annexin V-FITC/PI staining based analysis (reference value: 2.43%). It counts as functional. The note with it: dose 2 µmol/L, at 2 µM.
Series [10] has as its system NCI-H1299. In words: Induction of apoptosis in human NCI-H1299 cells assessed as late apoptotic cells at 2 micromol/L incubated for 24 hrs by Annexin V-FITC/PI staining based analysis (reference value: 14.9%). To be noted: dose 2 µmol/L, at 2 µM. The class given is functional.
For series [11], the system named is NCI-H1975. In words: Induction of mitochondrial transmembrane potential dissipation in human NCI-H1975 cells assessed as cells with low mitochondrial transmembrane potential at 1 micromol/L by FL-1/FL-2 channel based fluorescence analysis (reference value: 2.13%). The class given is functional. To be noted: dose 1 µmol/L; at 1 µM.
Series [12] deals with HCC827. In words: Induction of apoptosis in human HCC827 cells assessed as early apoptotic cells at 2 micromol/L incubated for 24 hrs by Annexin V-FITC/PI staining based analysis (reference value: 9.14%). It counts as functional. To be noted: dose 2 µmol/L, at 2 µM.
For series [13], the system named is NCI-H1975. The experiment in a line: Induction of mitochondrial transmembrane potential dissipation in human NCI-H1975 cells assessed as cells with high mitochondrial transmembrane potential at 1 micromol/L by FL-1/FL-2 channel based fluorescence analysis (reference value: 97.4%). The class given is functional. To be noted: dose 1 µmol/L; at 1 µM.
For series [14], the system named is NCI-H1975. The experiment in a line: Induction of apoptosis in human NCI-H1975 cells assessed as late apoptotic cells at 2 micromol/L incubated for 24 hrs by Annexin V-FITC/PI staining based analysis (reference value: 2.66%). To be noted: dose 2 µmol/L, at 2 µM. It counts as functional.
In series [15] the test system is A549. In words: Induction of apoptosis in human A549 cells assessed as late apoptotic cells at 2 micromol/L incubated for 24 hrs by Annexin V-FITC/PI staining based analysis (reference value: 3.18%). The note with it: dose 2 µmol/L, at 2 µM. It counts as functional.
Series [16] relates to NCI-H1975. The experiment in a line: Induction of apoptosis in human NCI-H1975 cells assessed as dead cells at 10 micromol/L incubated for 24 hrs by Annexin V-FITC/PI staining based analysis (reference value: 0.103%). The note with it: dose 10 µmol/L, at 10 µM. The class given is functional.
Series [17] deals with NCI-H1975. In words: Induction of apoptosis in human NCI-H1975 cells assessed as early apoptotic cells at 10 micromol/L incubated for 24 hrs by Annexin V-FITC/PI staining based analysis (reference value: 2.55%). The class given is functional. To be noted: dose 10 µmol/L, at 10 µM.
Series [18] concerns NCI-H1975. In words: Induction of apoptosis in human NCI-H1975 cells assessed as live cells at 10 micromol/L incubated for 24 hrs by Annexin V-FITC/PI staining based analysis (reference value: 88.7%). It counts as functional. The note with it: dose 10 µmol/L, at 10 µM.

Consider `COC(=O)[C@H](CS[C@H](CC=C(C)C)C1=CC(=O)c2c(O)ccc(O)c2C1=O)NC(=O)CCCC[C@@H]1CCSC(c2ccc(C(F)(F)F)cc2)S1` (stereo partly drawn), for which the IC50 in series [1] is 4.58 µM; in [2], 6.49 µM; in series [3], 2.32 µM; in series [5], 7.15 µM. This molecule came in with a half-inhibitory concentration (IC50) at 24 h in [4] of 84.9 µM.
For the molecule `CC(C)=CC[C@@H](O)C1=CC(=O)c2c(O)ccc(O)c2C1=O` [SHIKONIN], the Activity stood at 22.1% in [6]; 8.91% in series [7]; 10.7% in series [8]; 4.34% in series [9]; 17.2% in [10]; 8.69% in series [11]. Further, the Activity is given as 27.5% in [12], 91.3% in series [13], 9.96% in series [14] and 4.66% in series [15]. The IC50 in [1] came out at 3.95 µM; in series [2] it was 4.47 µM; in [3], 4.56 µM; in [5] it was 9.21 µM. Besides, the IC50 at 24 h in series [4] was 2.63 µM.
Take `COC(=O)[C@H](CS[C@H](CC=C(C)C)C1=CC(=O)c2c(O)ccc(O)c2C1=O)NC(=O)CCCC[C@@H]1CCSC(c2cccc(C(F)(F)F)c2)S1` (stereo partly drawn): the IC50 is 3.53 µM in [1], 4.59 µM in series [2], 3.66 µM in series [3] and 4.34 µM in series [5]. This molecule also had an IC50 at 24 h in [4] of 83.8 µM.
`COc1cc2ncnc(Nc3ccc(F)c(Cl)c3)c2cc1OCCCN1CCOCC1` [GEFITINIB]: the results for the Activity in [16], in [17] and in series [18] were 0%, 1.45% and 89%, respectively.
With `COC(=O)[C@H](CS[C@H](CC=C(C)C)C1=CC(=O)c2c(O)ccc(O)c2C1=O)NC(=O)CCCC[C@@H]1CCSC(C2CCCCC2)S1` (stereo partly drawn), the IC50 in series [1] is 11.6 µM; in [2] it was 18.3 µM; in series [3] it was 13.3 µM; in series [5] it was 11.5 µM. Further, in [4], half-maximal inhibition (IC50 at 24 h) was put at 86.1 µM.
On the same counts, the results for `COC(=O)[C@H](CS[C@H](CC=C(C)C)C1=CC(=O)c2c(O)ccc(O)c2C1=O)NC(=O)CCCC[C@@H]1CCSC(c2ccc(C(C)C)cc2)S1` (stereo partly drawn) are 4.93 µM, 4.21 µM, 4.08 µM, 4.21 µM and 77.5 µM.
Taken in the same sequence, the figures for `COC(=O)[C@H](CS[C@H](CC=C(C)C)C1=CC(=O)c2c(O)ccc(O)c2C1=O)NC(=O)CCCC[C@@H]1CCSC(c2ccc(C)cc2)S1` (stereo partly drawn) were 10.5 µM, 12.4 µM, 4.12 µM, 10.4 µM and 80.4 µM.
Taken in the same sequence, the figures for `COC(=O)[C@H](CS[C@H](CC=C(C)C)C1=CC(=O)c2c(O)ccc(O)c2C1=O)NC(=O)CCCC[C@@H]1CCSC(c2cccc(Br)c2)S1` (stereo partly drawn) were 3.53 µM, 15.2 µM, 7.4 µM, 11.8 µM and 96.7 µM.
In the case of `COC(=O)[C@H](CS[C@H](CC=C(C)C)C1=CC(=O)c2c(O)ccc(O)c2C1=O)NC(=O)CCCC[C@@H]1CCSC(c2ccccc2)S1` (stereo partly drawn), the half-inhibitory concentration (IC50) in [1] is 6.33 µM; in [2], 8.6 µM; in series [3], 11.5 µM; in series [5], 6.09 µM. In series [4], the midpoint of inhibition, the IC50 at 24 h, lay at 95.5 µM.

The term IC50 denotes the midpoint of a concentration-inhibition curve.
